Experiment [1] concerns human gastric cancer strain GSU. The class given is cell-based. The method, then:
(§1) A test compound was dispensed into a U-bottom 384-well plate as 40 nL serially diluted dimethyl sulfoxide solutions using a liquid handler Echo (LABCYTE). As for human gastric cancer strain GSU (Institute of Physical and Chemical Research), a cell suspension was prepared so as to have 200 cells/40 µL in an RPMI-1640 medium (Sigma) supplemented with 10% fetal bovine serum (Sigma). This cell suspension was dispensed in an amount of 40 µL per well into a plate containing the test compound, and cultured at 37°C in a 5% carbon dioxide gas incubator. Seven days later, 20 µL of CellTiter-Glo (registered trademark) (Promega) was added to each well and luminescence was measured.

Experiment [2] deals with human colorectal cancer strain GP2d. The class given is cell-based. As for the experimental part:
as §1, with “colorectal” for “gastric”, “GP2d (ECACC),” for “GSU (Institute of Physical and Chemical Research),”, “500” for “200”, “a Dulbecco's modified Eagle” for “an RPMI-1640”, “medium” for “medium (Sigma)”

Experiment [3] has as its system human ovarian cancer strain OV7. It is filed as cell-based. The method, then:
A test compound was dispensed into a U-bottom 384-well plate as 40 nL serially diluted dimethyl sulfoxide solutions using a liquid handler Echo (LABCYTE). As for human ovarian cancer strain OV7 (ECACC), a cell suspension was prepared so as to have 250 cells/40 µL in a DMEM/Ham's F-12 medium (Nacalai Tesque) supplemented with 5% fetal bovine serum (Sigma), 0.5 µg/mL hydrocortisone, and 10 µg/mL insulin. This cell suspension was dispensed in an amount of 40 µL per well into a plate containing the test compound, and cultured at 37°C in a 5% carbon dioxide gas incubator. Seven days later, 20 µL of CellTiter-Glo (registered trademark) (Promega) was added to each well and luminescence was measured.

The subject of experiment [4] is human bladder cancer strain UM-UC-3. It is filed as cell-based. The method, then: A test compound was dispensed into a U-bottom 384-well plate as 40 nL serially diluted dimethyl sulfoxide solutions using a liquid handler Echo (LABCYTE). As for human bladder cancer strain UM-UC-3 (ATCC), a cell suspension was prepared so as to have 250 cells/40 µL in an MEM medium (Nacalai Tesque) supplemented with 10% fetal bovine serum (Sigma), an MEM non-essential amino acids solution (100X), and 1 mmol/L sodium pyruvate. This cell suspension was dispensed in an amount of 40 µL per well into a plate containing the test compound, and cultured at 37°C in a 5% carbon dioxide gas incubator. Seven days later, 20 µL of CellTiter-Glo (registered trademark) (Promega) was added to each well and luminescence was measured. […]

Experiment [5] addresses GDP-bound KRAS wild-type protein (Homo sapiens, UniProt P01116). Put plainly: Binding to KRAS by surface plasmon resonance (SPR), dissociation constant KD. The conditions noted are these: 1:1 binding model. The essentials:
(§2)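 Compound binding is evaluated by SPR single-cycle kinetics, with concentrations added intermittently from low to high for 75 s each. Target surfaces carry GDP-loaded biotinylated Avi-RAS at about 100–300 RU, regenerated after each cycle; temperature 30°C. A 1:1 binding model gives KD.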
Background: Surface plasmon resonance follows binding to a sensor surface in real time, without labels.

Experiment [6] relates to human gastric cancer strain SNU-1. The class given is cell-based. As for the experimental part: A test compound was dispensed into a U-bottom 384-well plate as 40 nL serially diluted dimethyl sulfoxide solutions using a liquid handler Echo (LABCYTE). As for human gastric cancer strain SNU-1 (ATCC), a cell suspension was prepared so as to have 250 cells/40 µL in an RPMI-1640 medium (Sigma) supplemented with 10% fetal bovine serum (Sigma), a 2.5 g/L D-(+)-glucose solution, 10 mmol/L HEPES, and 1 mmol/L sodium pyruvate. This cell suspension was dispensed in an amount of 40 µL per well into a plate containing the test compound, and cultured at 37°C in a 5% carbon dioxide gas incubator. Seven days later, 20 µL of CellTiter-Glo (registered trademark) (Promega) was added to each well and luminescence was measured.

Experiment [7] addresses GDP-bound NRAS wild-type protein (Homo sapiens, UniProt P01111). As to the kind of experiment: Binding to NRAS by surface plasmon resonance (SPR), KD and KD ratio to KRAS. The essentials: as §2
The next experiment has as its target HRAS wild-type protein (Homo sapiens, UniProt P01112). As to the kind of experiment: Binding to HRAS by surface plasmon resonance (SPR), KD and KD ratio to KRAS. The essentials: as §2
Experiment [8] deals with human pancreatic cancer strain KP4. It is filed as cell-based. As for the experimental part: as §1, with “human pancreatic” for “human gastric”, “strain KP4” for “strain GSU”, “have 500” for “have 200”, “in a DMEM/Ham's F-12” for “in an RPMI-1640”, “medium (Nacalai Tesque)” for “medium (Sigma)”
Experiment [9] deals with human lung cancer strain NCI-H441. It is filed as cell-based. The essentials: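 Proliferation was scored by […] measured after the reagent was added to cultures kept at 37°C in 5% carbon dioxide.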
The mark [10] stands for this setting: ratio of KD for GDP-bound NRAS wild-type protein to KD for KRAS.
[11] abbreviates: ratio of KD for HRAS wild-type protein to KD for KRAS.

Structures are written as SMILES.

Sequence of GDP-bound KRAS wild-type protein (P01116 1-188 isoform P01116-2): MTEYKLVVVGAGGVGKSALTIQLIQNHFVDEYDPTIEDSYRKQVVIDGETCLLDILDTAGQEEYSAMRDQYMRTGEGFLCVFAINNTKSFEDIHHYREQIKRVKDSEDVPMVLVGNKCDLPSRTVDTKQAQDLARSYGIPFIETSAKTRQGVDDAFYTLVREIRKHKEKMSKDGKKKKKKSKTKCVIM
Sequence of HRAS wild-type protein (P01112 whole entry): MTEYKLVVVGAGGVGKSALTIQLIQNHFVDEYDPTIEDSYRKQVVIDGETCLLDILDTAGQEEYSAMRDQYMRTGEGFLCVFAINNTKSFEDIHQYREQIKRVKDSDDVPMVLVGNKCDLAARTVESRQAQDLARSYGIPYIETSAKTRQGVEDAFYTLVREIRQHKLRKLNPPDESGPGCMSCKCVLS
Sequence of GDP-bound NRAS wild-type protein (P01111 whole entry): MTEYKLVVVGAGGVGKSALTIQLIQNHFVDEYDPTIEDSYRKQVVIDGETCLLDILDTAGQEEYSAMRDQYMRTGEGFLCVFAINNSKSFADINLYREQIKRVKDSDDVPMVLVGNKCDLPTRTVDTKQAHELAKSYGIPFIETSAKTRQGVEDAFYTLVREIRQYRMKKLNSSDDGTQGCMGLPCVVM

Regarding `CCC[C@H]1C(=O)N[C@@H]([C@@H](C)CC)C(=O)N(C)CC(=O)N(C)[C@H]2C/C=C\CCN(C2=O)[C@@H](Cc2ccc(C(F)(F)F)cc2)C(=O)N(C)CC(=O)N[C@@H](CCc2ccc(Cl)c(Cl)c2)C(=O)N2C[C@H](OCC)C[C@H]2C(=O)NC2(CC(C)(C)C2)C(=O)N(C)[C@@H](C(CC)CC)C(=O)N(C)[C@H](C(=O)N(C)C)CC(=O)N1C` [PP2175, (2S,8S,12R,14S,20S,23S,27S,30S,36S,38Z)-8-[2-(3,4-dichlorophenyl)ethyl]-12-ethoxy-20-(1-ethylpropyl)-N,N,3',3',4,19,22,26,32,35-decamethyl-30-[(1S)-1-methylpropyl]-3,6,9,15,18,21,25,28,31,34,42-undecaoxo-27-propyl-2-[[4-(trifluoromethyl)phenyl]methyl]spiro[1,4,7,10,16,19,22,26,29,32,35-undecazatricyclo[34.5.1.0^10,14]dotetracont-38-ene-17,1'-cyclobutane]-23-carboxamide], the IC50 (usually the concentration that gives 50% inhibition) in experiment [1] was found to be 0.5 nM; in experiment [2], 24.8 nM; in experiment [3] it was 80.2 nM; in [4], 19.7 nM; in experiment [6], 20 nM; in experiment [8] it was 102 nM. The half-maximal inhibitory concentration (IC50) in experiment [9] worked out at 25.7 nM. In addition, the Kd – broadly, the concentration at which binding is half-saturated – in experiment [5] (Single Cycle Kinetics) turned out to be 0.45 nM. Moreover, in experiment [7] (ratio of the KD value with respect to GDP-bound NRAS wild-type protein to the KD value with respect to KRAS), the “NRAS /KRAS” value is given as “AA (a compound having 20 or more is denoted as AA)”. Also, the “HRAS /KRAS” value at HRAS wild-type protein (ratio of the KD value with respect to HRAS wild-type protein to the KD value with respect to KRAS) is “A (a compound having 10 or more and less than 20 is denoted as A)”.

For the molecule `CCC[C@H]1C(=O)N[C@@H]([C@@H](C)CC)C(=O)N(C2CC2)CC(=O)N(C)[C@H]2C/C=C\CCN(C2=O)[C@@H](Cc2ccc(C(F)(F)F)cc2)C(=O)N(C)CC(=O)N[C@@H](CCc2cc(F)c(C(F)(F)F)c(F)c2)C(=O)N2C[C@H](OCC)C[C@H]2C(=O)NC2(CC(C)(C)C2)C(=O)N(C)[C@@H](CC(C)(C)C)C(=O)N(C)[C@H](C(=O)N(C)C)CC(=O)N1C` [PP2742], the half-inhibitory concentration (IC50) in [1] amounted to 3.2 nM; in [2], 12 nM; in experiment [3] it was 20.4 nM; in experiment [4], 15.4 nM; in experiment [6], 26.7 nM; in experiment [8], 28.7 nM. For the same molecule, the half-maximal inhibitory concentration (IC50) in experiment [9] came to 14.9 nM. For the same molecule, in experiment [5], the dissociation constant (Kd) amounted to 0.26 nM. Also, in experiment [7] (setting [10]), the “NRAS /KRAS” value is recorded as “AA (a compound having 20 or more is denoted as AA)”. Also, the “HRAS /KRAS” value at HRAS wild-type protein (setting [11]) is “A (a compound having 10 or more and less than 20 is denoted as A)”.

For `CCO[C@@H]1C[C@H]2C(=O)NC3(CC(C)(C)C3)C(=O)N(C)[C@@H](CC(C)(C)C)C(=O)N(C)[C@H](C(=O)N(C)C)CC(=O)N(C)[C@@H](COC)C(=O)N[C@@H]([C@@H](C)CC)C(=O)N(C3CC3)CC(=O)N(C)[C@H]3C/C=C\CCN(C3=O)[C@@H](Cc3ccc(C(F)(F)F)cc3)C(=O)N(C)CC(=O)N[C@@H](CCc3ccc(Cl)c(Cl)c3)C(=O)N2C1` [PP2750, (2S,8S,12R,14S,20S,23S,27S,30S,36S,38Z)-32-cyclopropyl-8-[2-(3,4-dichlorophenyl)ethyl]-20-(2,2-dimethylpropyl)-12-ethoxy-27-(methoxymethyl)-N,N,3',3',4,19,22,26,35-nonamethyl-30-[(1S)-1-methylpropyl]-3,6,9,15,18,21,25,28,31,34,42-undecaoxo-2-[[4-(trifluoromethyl)phenyl]methyl]spiro[1,4,7,10,16,19,22,26,29,32,35-undecazatricyclo[34.5.1.0^10,14]dotetracont-38-ene-17,1'-cyclobutane]-23-carboxamide], the 50% inhibitory concentration (IC50) in [1] was found to be 1.9 nM; in [2], 23.6 nM; in experiment [3], 31.8 nM; in experiment [4], 20.6 nM; in experiment [6], 24.2 nM; in experiment [8], 56 nM. Moreover, in experiment [9], half-maximal inhibition (IC50) required 19 nM. The molecule further displayed an equilibrium dissociation constant (Kd) in experiment [5] of 0.54 nM. In experiment [7] (setting [10]), the “NRAS /KRAS” value was “AA (a compound having 20 or more is denoted as AA)”. In addition, the “HRAS /KRAS” value at HRAS wild-type protein (setting [11]) was “A (a compound having 10 or more and less than 20 is denoted as A)”.

For `CCC(CC)[C@H]1C(=O)N(C)[C@H](C(=O)N(C)C)CC(=O)N(C)[C@@H](COC)C(=O)N[C@@H]([C@@H](C)CC)C(=O)N(C)CC(=O)N(C)[C@H]2C/C=C\CCN(C2=O)[C@@H](Cc2ccc(C)cc2)C(=O)N(C)CC(=O)N[C@@H](CCc2ccc(C(F)(F)F)c(Cl)c2)C(=O)N2CC3(CC3)C[C@H]2C(=O)NC2(CC(C)(C)C2)C(=O)N1C` [PP2967], the IC50 in experiment [1] was 5.2 nM; in experiment [2], 27.2 nM; in experiment [3] it was 57.1 nM; in experiment [4] it was 21.5 nM; in experiment [6] it was 35.6 nM; in experiment [8] it was 61.3 nM. The same molecule yielded a half-maximal inhibitory concentration (IC50) in [9] of 17 nM. This molecule also came in with a Kd in experiment [5] of 0.41 nM. The “NRAS /KRAS” value in experiment [7] (setting [10]) is on record as “AA (a compound having 20 or more is denoted as AA)”. Also, on HRAS wild-type protein (setting [11]), the “HRAS /KRAS” value is “A (a compound having 10 or more and less than 20 is denoted as A)”.

Regarding `CCO[C@@H]1C[C@H]2C(=O)NC3(CC(C)(C)C3)C(=O)N(C)[C@@H](C3CCCC3)C(=O)N(C)[C@H](C(=O)N(C)C)CC(=O)N(C)[C@@H]([C@@H](C)OC)C(=O)N[C@@H]([C@@H](C)CC)C(=O)N(C)CC(=O)N(C)[C@H]3C/C=C\CCN(C3=O)[C@@H](Cc3ccc(C(F)(F)F)cc3)C(=O)N(C)CC(=O)N[C@@H](CCc3ccc(C(F)(F)F)c(OC)c3)C(=O)N2C1` [PP3194, (2S,8S,12R,14S,20S,23S,27S,30S,36S,38Z)-20-cyclopentyl-12-ethoxy-27-[(1R)-1-methoxyethyl]-8-[2-[3-methoxy-4-(trifluoromethyl)phenyl]ethyl]-N,N,3',3',4,19,22,26,32,35-decamethyl-30-[(1S)-1-methylpropyl]-3,6,9,15,18,21,25,28,31,34,42-undecaoxo-2-[[4-(trifluoromethyl)phenyl]methyl]spiro[1,4,7,10,16,19,22,26,29,32,35-undecazatricyclo[34.5.1.0^10,14]dotetracont-38-ene-17,1'-cyclobutane]-23-carboxamide], the 50% inhibitory concentration (IC50) in experiment [1] turned out to be 0.6 nM; in experiment [2], 2.8 nM; in experiment [3], 7.7 nM; in experiment [4], 2.7 nM; in experiment [6], 2.5 nM; in experiment [8], 6.8 nM. Moreover, the 50% inhibitory concentration (IC50) in [9] is 2.9 nM. Further, binding in experiment [5] was characterised by a dissociation constant (Kd) of 0.041 nM. Also, in experiment [7] (setting [10]), the “NRAS /KRAS” value was “A (a compound having 10 or more and less than 20 is denoted as A)”. Moreover, the “HRAS /KRAS” value at HRAS wild-type protein (setting [11]) is “A (a compound having 10 or more and less than 20 is denoted as A)”.

The values above are taken from patent EP4603105A1, “PHARMACEUTICAL COMPOSITION CONTAINING CYCLIC COMPOUND HAVING SELECTIVE KRAS INHIBITORY EFFECT AGAINST HRAS AND NRAS” (CHUGAI SEIYAKU KABUSHIKI KAISHA, priority 2022, dated 2024).
